In the experiment the test system is C. elegans. The experiment can be described thus: Mitophagy and mitochondrial function in C. elegans. It counts as in vivo. The text has this: FIGS. 13A-13B illustrate that coumarin 106 (“C1”, “AIC106”) promotes increased indices of mitophagy. FIG. 13A) Representative images and GFP quantification of mitochondrial content at day-5 adult worms (pges-1mtGFP; bottom) of mito::GFP reporter strains (GFP tagged to mitochondrial localizing signals) treated with C1 or DMSO control. FIG. 13B) Visualizing mitochondrial fission using mito::GFP (pmyo-3mtGFP) reporter strain. Representative GFP image shown in upper panel. Representative images (lower panel) showing mitochondrial fission after 48 hrs of C1 or control treatment (63× oil). Images converted to black & white format using NIH ImageJ software for quantification of fragmented mitochondria, denoted as white puncta here.
FIGS. 14A-14B illustrate that coumarin 106 (“C1”, “AIC106”) results in increases in mitochondrial function. FIG. 14A) Basal and maximal respiration measured in live worms in the Seahorse following addition of C1 (50, 200 μM). Values are reported as oxygen consumption rate (OCR, pmol/min/mg protein)+/− FCCP addition; *p<0.05; **p<0.01. FIG. 14B) Sensitivity to treatment for with increasing concentrations of the mitochondrial uncoupler FCCP in the absence and presence of C1 (20, 50 μM; 1 hr). Values are reported as % of live worms per plate, *p<0.01 versus FCCP alone.
FIG. 20, panels A-H: AIC106 treatment improves mitochondrial health. Panel A) Changes in mitochondrial membrane potential were determined by quantifying fluorescence intensity of individual TMRM stained wild type N2 worms post-24 hours treatment with AIC106 and DMSO-control. [N=3 independent experiments (mean±SD). ****p<0.0001, by unpaired t-test]. Panel B) TMRM stained wild type N2 worms were monitored by fluorescence microscopy. Panel C) Mitophagy flux upon AIC106 treatment was determined in DLM14 young adult worms (TOMM-7 tagged to a peptide linked dual-Fluorescent GFP) by quantifying relative fold changes in ratio of monomeric-fluorescent protein (mFP) to dual-fluorescent protein (dFP) compared to DMSO-control. Panel D) Ability of AIC106 to rescue mitochondrial toxin (FCCP) sensitivity was determined as percent survival of 24 hours treated AIC106 and DMSO-control wild type N2 worms. [N=3 independent experiments (mean±SD). ****p<0.0001, by two-way ANOVA with Sidak's multiple comparisons test]. Panel E) Ability of AIC106 to rescue enhanced mitochondrial toxin (FCCP, 20 μM) sensitivity in mitophagy deficient parkin/pdr-1 mutant was determined as percent survival of 24 hours treated AIC106 and DMSO-control pdr-1(tm598) and pdr-1(tm598); hlh-30(tm1978) mutant. [N=3 independent experiments (mean±SD). *p<0.05, by two-way ANOVA with Sidak's multiple comparisons test]. Panel F) Effect of AIC106 on mitochondrial biogenesis was determined by quantifying GFP fluorescence intensity in an individual SJ4143 worm (GFP targeted in mitochondria of intestinal cells) post-72 hours of treatment with AIC106 and DMSO-control. [N=3 independent experiments (mean±SD). ****p<0.0001, by unpaired t-test]. Panel G) SJ4143 worms were monitored by fluorescence microscopy. Panel H) Effects of AIC106 on basal (B) and maximum (M) mitochondrial respiration rate were determined by quantifying oxygen consumption rate (OCR) in wild type N2 and hlh-30(tm1978) mutant strain post-24 hours of treatment with AIC106 and DMSO-control. [N=3 independent experiments (mean±SD). *p<0.05, ***p<0.001 and ****p<0.0001, by one-way ANOVA with Tukey's multiple comparisons test].
FIG. 27, panels A-C: AIC106 induces mitophagy and increases lifespan. Panel A) Relative fold change in mRNA of key mitophagy genes including dct-1, pink-1 and pdr-1 was quantified by qRT-PCR after DMSO-control and AIC106 24 hours treatment in young adult N2 and hlh-30(tm1978) mutants. [N=3 independent experiments (mean±SD). **p<0.01 and ****p<0.0001, by two-way ANOVA with Sidak's multiple comparisons test]. […]

The structures appear in SMILES notation.

Take `O=c1oc2c3c4c(cc2c2c1CCC2)CCCN4CCC3` [C1, 2,3,6,7,10,11-Hexahydro-1H,5H-cyclopenta(3,4)(1)benzopyrano(6,7,8-ij)quinolizin-12(9H)-one]: the “mitophagy flux (mFP)” value (DLM14 worms (FIG. 20, panel C)) is reported as “increased mFP expression”. Also, for the setting “FIG. 13”, the mitophagy entry is given as “elevated mitophagy”. Also, where the note is “FIG. 14”, the mitochondrial health entry is “improvement in mitochondrial health”. In addition, the “mRNA of mitophagy specific genes” value (N2, hlh-30 dependent (FIG. 27, panel A)) is “elevated mRNA abundance of key mitophagy specific genes including dct-1 and pink-1”. Further, for the setting “N2 worms, 24 hours”, the “mitochondrial membrane potential (TMRM fluorescence)” value is listed as “significant decrease in the MMP”. Where the note is “SJ4143 worms, 72 hours”, the “mitochondrial content (GFP)” value is recorded as “increased mitochondrial content”. Further, the “maximum respiration capacity (OCR)” value is, setting by setting: (hlh-30 mutant worms) “failed to show any increase in the maximum respiration capacity”; (wild type N2, 24 hours) “increase maximum respiration capacity”.

For the origin of these results see patent US12673039B2, “Methods of inducing autophagy using coumarin derivatives and related compounds” (Buck Institute for Research on Aging, priority 2019, dated 2026).
